In data set [1] the test system is monoclonal antibody of clone C-1 (anti-dioxin antibody). The experiment in a line: Competitive EIA: inhibition of binding of clone C-1 monoclonal antibody to solid-phase antigen by free dioxin. Also noted: species or system mouse. The protocol:
(§1) Using various monoclonal antibodies, the specificity of the monoclonal antibodies to dioxin isomers was examined. The monoclonal antibodies were prepared in the following manner. An antibody-producing cell was injected into the abdominal cavity of a pristane-pretreated mouse. Th ascites fluid in the abdominal cavity caused by the growth of the cells was collected, and then a monoclonal antibody was purified by affinity chromatography using a protein G-Sepharose (manufactured by BIO-RAD Co.) as a carrier. Using three antibody-producing clones C-1, C-2 and C-3, respective monoclonal antibodies were prepared. The clones C-1, C-2 and C-3 produce monoclonal antibodies with respect to dibenzodioxin having chlorine atom at the 2-, 3-, 7-, and 8-positions.
(§2) To evaluate the specificity of the monoclonal antibody was performed according to the following principles. A solid-phase antigen (competitor) and a free dioxin (ligand) are allowed to compete with each other with respect to a free monoclonal antibody (anti-dioxin antibody). If the reactivity of the monoclonal antibody and the dioxin is higher than that of the monoclonal antibody and the solid-phase antigen, the binding of the monoclonal antibody to the solid-phase antigen is reduced. This reduction of the binding of the monoclonal antibody to the solid-phase antigen can be measured by color development method. This phenomenon can be applied to evaluate the specificity.
(§3) First, the immune antigen or the compound (IIa) conjugated with BSA that was produced in Example 2 was diluted with PBS to 1 μg/ml, and divided into each well of a 96-well assay plate (manufactured by Costar, Cat. No. 3590) in an amount of 50 μl. Then, the plate was sealed and allowed to stand at room temperature for one hour. Then, each well was washed with PBS containing 0.005% of Tween 20 three times. Next, 300 μl of Block Ace (manufactured by Snow Brand Milk Products Co., Ltd.) diluted with distilled water to a concentration of 25% was supplied to each well, and the plate was sealed and allowed to stand at 37° C. for two hours. Each well was washed with PBS containing 0.005% of Tween 20 three times. Then, a 25 μl of the dioxin compound solution of a final concentration of 5×10^−7 M was added to each well. The dioxin compound solution was prepared by diluting the dioxin with a dilution solvent comprising 20% DMSO and 0.01% of Triton X100. As controls, a dilution solvent in an amount of 25 μl was added to each well. Immediately after the addition of the dioxin compound solution or the dilution solvent, 25 μl of an antibody solution diluted with PBS containing 1 mg/ml of BSA was added to each well. The assay plate was stand at room temperature for one hour with slightly shaking.
(§4) After washing with PBS containing 0.005% of Tween 20 three times, 50 μl of the diluted HRP-labeled goat anti-mouse IgG (H+L) antibody (produced by affinity purification) was added to each well. The diluted HRP-labeled antibody was prepared by diluting the purchased HRP-labeled antibody to 2000 times as much with 10% Block Ace. The plate was allowed to stand at room temperature for one hour, followed by washing with PBS containing 0.005% of Tween 20 three times. Then, 50 μl of a HRP substrate, TMB (manufactured by KPL Co., Ltd.), was added to each well and allowed to stand at room temperature for 5 to 10 min. Then, 5 μl of a 1 M phosphate solution was added to each well, and the absorbance at a wavelength of 455 nm (655 nm for the reference) was measured with a spectrophotometer for a microtiter. The reactivity was evaluated by obtaining the absorbance (B0) at the time when the dioxin compound is not added, which is a control (diluent) and the absorbance (B) at the time when the dioxin compound is added. The inhibition rate was measured based on the following equation. Inhibition rate={(B0−B)/B0}×100 (%)
(§5) Evaluation was such that the larger this inhibition rate is, the higher the specificity of the anti-dioxin antibody to the dioxin compound.

The test system of data set [2] is monoclonal antibody of clone C-2 (anti-dioxin antibody). The data set is described as follows: Competitive EIA: inhibition of binding of clone C-2 monoclonal antibody to solid-phase antigen by free dioxin. Also noted: species or system mouse. The protocol:
as §1, §2, §3, §4, §5

For data set [3], the system named is monoclonal antibody of clone C-3 (anti-dioxin antibody). The data set is described as follows: Competitive EIA: inhibition of binding of clone C-3 monoclonal antibody to solid-phase antigen by free dioxin. Also noted: species or system mouse. The protocol:
as §1, §2, §3, §4, §5

In data set [4] the test system is anti-dioxin antibody (monoclonal antibody) to 1,2,3,7,8-PeCDF. Type of data set: binding, mouse. The note with it: Table 2, dioxins having TEF; solid-phase antigen (IIa); antibody to 1,2,3,7,8-PeCDF. The protocol: as §3, §4
An anti-dioxin antibody (monoclonal antibody) to 1,2,3,7,8-PeCDF is used as an antibody. A haptenized product of a solid-phase antigen 6-(2,4,5-trichlorophenoxy) hexanoic acid amide derivative (IIa) and the chlorine-containing organic compounds in Tables 2 and 3 were allowed to compete with each other to this anti-dioxin antibody so that a competitive reaction was effected in the same manner as in Example 3. Then, the cross-reactivity was examined.

For data set [5] the following is noted: toxicity equivalent factor of the dioxins used; cited from earlier work.
The mark [6] stands for this setting: solid-phase antigen * (haptenized product of 6-(2,4,5-trichlorophenoxy) hexanoic acid amide derivative IIa), dioxin compound 5×10^−7 M.
[7] abbreviates: solid-phase antigen immunogen 1, dioxin compound final concentration 5×10^−7 M.
Setting [8] is: solid-phase antigen immunogen 2, dioxin compound final concentration 5×10^−7 M.
Where [9] appears, read: solid-phase antigen immunogen 3, dioxin compound final concentration 5×10^−7 M.

For the molecule `Clc1c(Cl)c(Cl)c2c(oc3c(Cl)c(Cl)c(Cl)c(Cl)c32)c1Cl` [OCDF], the Inhibition rate in data set [1] (setting [6]) was 27.0%; in data set [1] (setting [7]) it was 1.1%; in data set [2] (setting [6]), 7.2%; in data set [2] (setting [8]), 18.1%; in data set [3] (setting [6]) it was 4.9%; in data set [3] (setting [9]) it was 1.3%. This molecule also yielded a cross reaction in data set [4] of 8.0%. The TEF value in data set [5] is recorded as 0.0001.

For the molecule `Clc1cc2oc3cc(Cl)c(Cl)c(Cl)c3c2c(Cl)c1Cl` [1,2,3,7,8,9-HxCDF], the Inhibition rate in data set [1] (setting [6]) stood at 34.7%; in data set [1] (setting [7]) it was 26.2%; in data set [2] (setting [6]), 68.1%; in data set [2] (setting [8]), 43.3%; in data set [3] (setting [6]) it was 48.1%; in data set [3] (setting [9]), 10.4%. In data set [4], this molecule returned a cross reaction of 42.7%. Besides, the TEF value in data set [5] was 0.1.

Turning to `Clc1cc2oc3c(Cl)c(Cl)c(Cl)c(Cl)c3c2c(Cl)c1Cl` [1,2,3,4,7,8,9-HpCDF], the Inhibition rate in data set [1] (setting [6]) is 7.1%; in data set [1] (setting [7]) it was 5.8%; in data set [2] (setting [6]), 7.5%; in data set [2] (setting [8]), 27.7%; in data set [3] (setting [6]) it was 11.3%; in data set [3] (setting [9]), 6.1%. In data set [4], this molecule showed a cross reaction of 28.7%. In addition, the TEF value in data set [5] is 0.01.

Turning to `Clc1cc2oc3c(Cl)c(Cl)c(Cl)c(Cl)c3c2cc1Cl` [1,2,3,4,7,8-HxCDF], the Inhibition rate in data set [1] (setting [6]) is given as −1.5%; in data set [1] (setting [7]) it was 3.3%; in data set [2] (setting [6]) it was −11.2%; in data set [2] (setting [8]), 5.2%; in data set [3] (setting [6]), 0.8%; in data set [3] (setting [9]), 4.9%. For the same molecule, the cross reaction in data set [4] was 45.9%. Moreover, the TEF value in data set [5] is on record as 0.1.

As to `Clc1cc2c(c(Cl)c1Cl)Oc1c(cc(Cl)c(Cl)c1Cl)O2` [1,2,3,7,8,9-HxCDD], the Inhibition rate in data set [1] (setting [6]) is listed as 19.1%; in data set [1] (setting [7]), 15.7%; in data set [2] (setting [6]) it was 41.9%; in data set [2] (setting [8]), 30.6%; in data set [3] (setting [6]) it was 28.6%; in data set [3] (setting [9]) it was 6.7%. Also, the cross reaction in data set [4] was found to be 39.8%. For the same molecule, the TEF value in data set [5] is reported as 0.1.

As for `Clc1cc2c(oc3cc(Cl)c(Cl)c(Cl)c32)c(Cl)c1Cl` [1,2,3,6,7,8-HxCDF], the Inhibition rate is 7.0% in data set [1] (setting [6]); 3.5% in data set [1] (setting [7]); 5.0% in data set [2] (setting [6]); 9.4% in data set [2] (setting [8]); 4.1% in data set [3] (setting [6]); 2.9% in data set [3] (setting [9]). In data set [4], this molecule returned a cross reaction of 36.6%. The TEF value in data set [5] is recorded as 0.1.

In the case of `Clc1cc2oc3cc(Cl)c(Cl)cc3c2cc1Cl` [2,3,7,8-TeCDF], the Inhibition rate is 8.4% in data set [1] (setting [6]); 1.6% in data set [1] (setting [7]); 37.6% in data set [2] (setting [6]); 15.3% in data set [2] (setting [8]); 4.3% in data set [3] (setting [6]); −1.6% in data set [3] (setting [9]). In data set [4], the cross reaction is on record as 1.5%. Also, in data set [5], the TEF value is recorded as 0.1.

For `Clc1cc2c(cc1Cl)Oc1cc(Cl)c(Cl)cc1O2` [2,3,7,8-TeCDD, 2,3,7,8-tetrachlorozibenzo-p-dioxin], the Inhibition rate in data set [1] (setting [6]) is recorded as 7.4%; in data set [1] (setting [7]), 0.4%; in data set [2] (setting [6]), 7.7%; in data set [2] (setting [8]), −3.0%; in data set [3] (setting [6]), −3.4%; in data set [3] (setting [9]), −0.2%. The same molecule came in with a cross reaction in data set [4] of 1.1%. Moreover, the TEF value in data set [5] was 1.
